Laboratory results published in patent publication US20250084087A1, “BICYCLIC HETEROCYCLES AS MRGPRX2 ANTAGONISTS” (Incyte Corporation, priority 2023, published 2025).
pIC50: −log10 of the molar value.

Columns and labels:
[1] = target: T1, MRGPRX2 (Homo sapiens, UniProt Q96LB1); experiment: MRGPRX2 β-Arrestin recruitment assay (PathHunter); type: cell-based; design: host or cells: CHO-K1 (PathHunter); conditions: PathHunter CHO-K1 MRGPRX2 β-Arrestin cell line; agonist Cortistatin 14 0.25 μM
T1 sequence (Q96LB1 1-330): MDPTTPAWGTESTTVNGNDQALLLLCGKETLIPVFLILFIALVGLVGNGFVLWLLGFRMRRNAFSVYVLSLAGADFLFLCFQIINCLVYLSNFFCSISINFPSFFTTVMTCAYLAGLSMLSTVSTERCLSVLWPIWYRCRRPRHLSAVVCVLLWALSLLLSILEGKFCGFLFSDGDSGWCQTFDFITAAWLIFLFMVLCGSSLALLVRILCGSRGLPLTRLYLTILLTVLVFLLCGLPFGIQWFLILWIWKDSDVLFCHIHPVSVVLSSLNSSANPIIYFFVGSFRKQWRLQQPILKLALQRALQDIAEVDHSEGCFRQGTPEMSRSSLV
Text: Example C: MRGPRX2 P-Arrestin Assay
This assay measures compound inhibition of P-Arrestin recruitment, which is part of the G protein-independent pathway that results from the ligand-activated GPCR phosphorylation by specific GPCR kinases. The PathHunter CHO-K1 MRPGRX2 B-Arrestin Cell line stably expressing ProLink tagged MRGPRX2 and Enzyme Acceptor Tagged B-Arrestin was purchased from Eurofins DiscoverX, (Fremont, CA).
The cells were maintained in culture medium from the Europhins DiscoverX Cell Culture Kit-107 which includes FBS, hygromycin B and G418. For the assay, the cells were harvested and were resuspended with Cell Plating Reagent 2 (Eurofins DiscoverX). Cells were added 10000 cells in 25 μL/well to a 384-well black cell culture plate (Greiner VWR, Radnor, PA) which contained 125 nL/well of compound at a selected serially diluted concentration range or DMSO. The plate was incubated at 37° C. with 5% CO2 for 1 h. 2 μL/well of agonist Cortistatin 14 was diluted in Protein Dilution Buffer, (Eurofins DiscoverX) for a final concentration of 0.25 μM, was added and the plate was incubated at 37° C. with 5% CO2 for 90 min. 14 μL/well of Detection Reagent Mix (PathHunter Detection Kit, Eurofins DiscoverX) was added to the plates and further incubated for 1 h in the dark. Plates were read on the PHERAstar microplate reader (BMG Labtech Cary, NC) measuring luminescence 0.1 to 1 second per well. Data was normalized using DMSO only wells and wells with high concentration of reference antagonist as controls. Compound IC50 curves were globally fitted with 3- or 4-parameter Hill equation in a Genedata Screener (Genedata Basel, Switzerland).

[2] = target: T1, MRGPRX2; experiment: MRGPRX2 IP1 HTRF assay; type: cell-based; design: host or cells: CHO-K1; conditions: CHO-K1 cells stably expressing human MRGPRX2; IP1 accumulation; agonist Cortistatin 14 1 μM
Text: Example B: MRGPRX2 IP1 HTRF Assay
This assay measures compound inhibition of myo-Inositol 1 phosphate (IP1) accumulation in CHO-K1 cells. Chinese hamster ovary (CHO-K1) cells stably expressing human MRGPRX2 were purchased from GenScript (Piscataway, NJ).
For the HTRF IP1 determination, an IP-One GqKit (Perkin Elmer Cisbio, Waltham, MA), which includes all reagents and buffers in this protocol, was used. The cells were maintained in culture medium (Ham's F-12K) containing 10% (v/v) FBS, and 200 μg/mL Zeocin. For the assay, the cells were harvested and resuspended in culture medium with 2% FBS and without Zeocin, then were passed through a 40 μm filter. Cells were added at 20000 cells in a 5 μL/well to a 384-well white small volume cell culture plate (Greiner VWR, Radnor, PA) which contained 50 nL/well of test compound serially diluted at a selected concentration range in DMSO. 5 μL/well of prepared 2× Stimulation Buffer2 was then added to plates and was incubated at 37° C. with 5% CO2 for 1 h. 5 μL/well of agonist Cortistatin 14 (Bio-TechneR&D Systems, Minneapolis, MN) in 1× Stimulation Buffer2, for a 1 μM final concentration, was then added to plates and incubated at 37° C. with 5% CO2 for 1 h. 6 μL/well of 1:20 diluted Detection Reagent Mix (d2 and Cryptate) was added to the plates and incubated for 1 h in the dark. Plates were read on the PHERAstar microplate reader (BMG Labtech Cary, NC) to determine the HTRF ratio of the acceptor and donor emission signals. The IP1 concentrations were calculated from a standard curve following the IP-One GQ kit instructions. Wells with DMSO only and wells with high concentration of reference antagonist were used as controls for normalization. Compound IC50 curves were globally fitted with 3- or 4-parameter Hill equation in a Genedata Screener (Genedata Basel, Switzerland).

| SMILES | pIC50 [1] | pIC50 [2] |
| --- | --- | --- |
| NC(=O)N1CCC(CNc2cc(Cl)nc3nc(C(F)(F)F)cn23)(c2ccccc2)CC1 [Example 1, 4-(((7-Chloro-2-(trifluoromethyl)imidazo[1,2-a]pyrimidin-5-yl)amino)methyl)-4-phenylpiperidine-1-carboxamide] | – | 6.00 to 7.00 |
| NC(=O)N1CCC(CNc2nccc3nc(C(F)(F)F)cn23)(c2ccccc2)CC1 [Example 2, 4-Phenyl-4-(((2-(trifluoromethyl)imidazo[1,2-c]pyrimidin-5-yl)amino)methyl)piperidine-1-carboxamide] | – | 6.00 to 7.00 |
| CNC(=O)N1CC(CNc2cc(Cl)cc3nc(C(F)(F)F)cn23)(c2ccc(F)cn2)C1 [Example 25, 3-(((7-Chloro-2-(trifluoromethyl)imidazo[1,2-a]pyridin-5-yl)amino)methyl)-3-(5-fluoropyridin-2-yl)-N-methylazetidine-1-carboxamide] | 7.00 to 10.00 | 7.00 to 10.00 |
| CNC(=O)N1CC(CNc2cc(C(F)(F)F)nc3cc(C(F)(F)F)nn23)(n2cc(F)cn2)C1 [Example 41, 3-(((2,5-Bis(trifluoromethyl)pyrazolo[1,5-a]pyrimidin-7-yl)amino)methyl)-3-(4-fluoro-1H-pyrazol-1-yl)-N-methylazetidine-1-carboxamide] | 7.00 to 10.00 | 7.00 to 10.00 |
| Nc1nc(N2CCC(CNc3cc(C(F)F)nc4cc(C(F)(F)F)nn34)(c3ccccc3)CC2)n[nH]1 [Example 42, N-((1-(5-Amino-1H-1,2,4-triazol-3-yl)-4-phenylpiperidin-4-yl)methyl)-5-(difluoromethyl)-2-(trifluoromethyl)pyrazolo[1,5-a]pyrimidin-7-amine] | 7.00 to 10.00 | 7.00 to 10.00 |
| O=c1cc(N2CC(CNc3cc(C(F)(F)F)nc4cc(C(F)(F)F)nn34)(c3ccc(F)cc3)C2)ccn1C1CC1 [Example 51, 4-(3-(((2,5-Bis(trifluoromethyl)pyrazolo[1,5-a]pyrimidin-7-yl)amino)methyl)-3-(4-fluorophenyl)azetidin-1-yl)-1-cyclopropylpyridin-2(1H)-one] | 7.00 to 10.00 | – |
| C[C@]1(O)C[C@@H](NC(=O)N2CC(CNc3cc(C(F)(F)F)nc4cc(C(F)(F)F)nn34)(c3ccc(F)cc3)C2)C1 [Example 52, 3-(((2,5-Bis(trifluoromethyl)pyrazolo[1,5-a]pyrimidin-7-yl)amino)methyl)-3-(4-fluorophenyl)-N-((1s,3s)-3-hydroxy-3-methylcyclobutyl)azetidine-1-carboxamide] | 7.00 to 10.00 | 7.00 to 10.00 |
| N#CC12CC(NC(=O)N3CC(CNc4cc(C(F)(F)F)nc5cc(C(F)(F)F)nn45)(c4ccc(F)cn4)C3)(C1)C2 [Example 64, 3-(((2,5-Bis(trifluoromethyl)pyrazolo[1,5-a]pyrimidin-7-yl)amino)methyl)-N-(3-cyanobicyclo[1.1.1]pentan-1-yl)-3-(5-fluoropyridin-2-yl)azetidine-1-carboxamide] | 7.00 to 10.00 | – |
| [2H]C([2H])([2H])c1cc(NCC2(c3ccc(F)cc3)CN(C(N)=O)C2)n2nc(C(F)(F)F)cc2n1 [Example 70, 3-(4-Fluorophenyl)-3-(((5-(methyl-d3)-2-(trifluoromethyl)pyrazolo[1,5-a]pyrimidin-7-yl)amino)methyl)azetidine-1-carboxamide] | 7.00 to 10.00 | – |
| CCc1cc(NCC2(c3ccc(F)cc3)CCC(N)(C#N)CC2)n2nc(C(F)(F)F)cc2n1 (stereo not shown) [Example 72, 1-Amino-4-(((5-ethyl-2-(trifluoromethyl)pyrazolo[1,5-a]pyrimidin-7-yl)amino)methyl)-4-(4-fluorophenyl)cyclohexane-1-carbonitrile] | 7.00 to 10.00 | – |

Continued, values first:

| pIC50 [1] | pIC50 [2] | SMILES |
| --- | --- | --- |
| 7.00 to 10.00 | – | OC1CCC(CNc2cc(C(F)(F)F)nc3cc(Br)nn23)(c2ccncc2)C1 (racemic) [Example 86, 3-(((2-Bromo-5-(trifluoromethyl)pyrazolo[1,5-a]pyrimidin-7-yl)amino)methyl)-3-(pyridin-4-yl)cyclopentan-1-ol] |
| < 6.00 | – | OCC1CC1(CNc1cc(C(F)(F)F)nc2cc(Br)nn12)c1ccccn1 (single isomer, unassigned) [Example 88, (2-(((2-Bromo-5-(trifluoromethyl)pyrazolo[1,5-a]pyrimidin-7-yl)amino)methyl)-2-(pyridin-2-yl)cyclopropyl)methanol] |
| 6.00 to 7.00 | – | OCC1CC1(CNc1cc(C(F)(F)F)nc2cc(Br)nn12)c1ccccc1 (single isomer, unassigned) [Example 89, (2-(((2-Bromo-5-(trifluoromethyl)pyrazolo[1,5-a]pyrimidin-7-yl)amino)methyl)-2-phenylcyclopropyl)methanol] |
| 7.00 to 10.00 | – | CO[C@H]1C[C@](CNc2cc(C(F)(F)F)nc3cc(C(F)(F)F)nn23)(c2ccccc2)C1 [Example 75, N-(((1s,3s)-3-Methoxy-1-phenylcyclobutyl)methyl)-2,5-bis(trifluoromethyl)pyrazolo[1,5-a]pyrimidin-7-amine] |
| 7.00 to 10.00 | – | NC(=O)C1(N)CC(CNc2cc(C(F)(F)F)nc3cc(C(F)(F)F)nn23)(c2ccc(F)cc2)C1 (stereo not shown) [Example 76, 1-Amino-3-(((2,5-bis(trifluoromethyl)pyrazolo[1,5-a]pyrimidin-7-yl)amino)methyl)-3-(4-fluorophenyl)cyclobutane-1-carboxamide] |
| 7.00 to 10.00 | – | NC(=O)N1CC(CNc2cc(Cl)cc3nc(C(F)(F)F)nn23)(c2ccccc2)C1 [Example 79, 3-(((7-Chloro-2-(trifluoromethyl)-[1,2,4]triazolo[1,5-a]pyridin-5-yl)amino)methyl)-3-phenylazetidine-1-carboxamide] |
| 7.00 to 10.00 | – | OC1CC(CNc2cc(C(F)(F)F)nc3nc(C(F)(F)F)cn23)(c2ccc(F)cc2)C1 (stereo not shown) [Example 80, 3-(((2,7-Bis(trifluoromethyl)imidazo[1,2-a]pyrimidin-5-yl)amino)methyl)-3-(4-fluorophenyl)cyclobutan-1-ol] |
| 7.00 to 10.00 | – | CNC1CCC(CNc2cc(C(F)(F)F)nc3cc(Br)nn23)(c2cccnc2)C1 (stereo not shown) [Example 87, 2-Bromo-N-((3-(methylamino)-1-(pyridin-3-yl)cyclopentyl)methyl)-5-(trifluoromethyl)pyrazolo[1,5-a]pyrimidin-7-amine] |
| 6.00 to 7.00 | – | Cc1ccc(C2(CNc3cc(C(F)(F)F)nc4cc(C(F)(F)F)nn34)CN(S(N)(=O)=O)C2)cn1 [Example 97, 3-(((2,5-Bis(trifluoromethyl)pyrazolo[1,5-a]pyrimidin-7-yl)amino)methyl)-3-(6-methylpyridin-3-yl)azetidine-1-sulfonamide] |
| < 6.00 | – | [2H]C([2H])([2H])NC(=O)N1CC(CNc2cc(C3CC3)nc3cc(C(F)(F)F)nn23)(c2ccc(C(=O)N(C)C)cc2)C1 [Example 107, 3-(((5-Cyclopropyl-2-(trifluoromethyl)pyrazolo[1,5-a]pyrimidin-7-yl)amino)methyl)-3-(4-(dimethylcarbamoyl)phenyl)-N-(methyl-d3)azetidine-1-carboxamide] |
| 6.00 to 7.00 | – | [2H]C([2H])([2H])NC(=O)N1CC(CNc2cc(C3CCC3)nc3cc(C(F)(F)F)nn23)(c2ccc(F)cc2)C1 [Example 108, 3-(((5-Cyclobutyl-2-(trifluoromethyl)pyrazolo[1,5-a]pyrimidin-7-yl)amino)methyl)-3-(4-fluorophenyl)-N-(methyl-d3)azetidine-1-carboxamide] |
